Measurements published in patent US11873405B2, “High oleic oil compositions and uses thereof” (priority 2021, dated 2024).

Key:
[1] = test system: E06 mutant (Strain K) microalgae cells; assay: Selection for tolerance to triparanol: growth in 3-day lipid production culture, 96-deep well block; type: cell-based, Prototheca wickerhamii; settings: cells exposed to increasing amounts of triparanol, FIG. 7
Procedure: The cryo-vials were thawed and used to initiate a 10 mL pre-seed culture in bioreactor tube, which was incubated for 72 h at 28° C./200 rpm. Two rounds of selection and enrichment with increasing amounts of triparanol were conducted following the strategy outlined in FIG. 3. […] This population was collected on sterile filters, diluted, and spread on solid media. The resulting clonal isolates were screened in our automated 96-well block-based lipid production and glucose consumption assay. A number of strains with increased oleate levels were identified among the mutant clones (TABLE 5). Strains validated in repeat assays were then assessed for phenotypic stability. Stable strains were cryo-preserved.
Cells were exposed to increasing amounts of triparanol during a 3-day lipid production culture in a 96-deep well block. Significant inhibition of growth occurred at […] concentrations >2 μM. Rare surviving cells presumed to be in wells where 50% inhibition was observed were recovered by sterile filtration, washed with and collected from the filter in M20+glucose pre-seed media. The cultures were then used to initiate another round of selection. By the third round of selection (right panels), a subtle difference in the growth of the mutant population compared to the mock-mutagenized controls was observed. […]

[2] = test system: E06 mutant (Strain K) microalgae cells; assay: Selection for tolerance to membrane stress: growth (OD750) in 3-day lipid production culture, 96-deep well block; type: cell-based, Prototheca wickerhamii; settings: fixed 1.6 μM triparanol plus increasing phenethyl alcohol, FIG. 6
Procedure: The mutant strain, Strain 0_E06 (Strain E06), while not phenotypically stable, consistently achieved higher oleate levels than the mutant lineage that gave rise to Strain 1 (TABLE 3). As such, this mutant lineage was selected for further rounds of classical strain improvement, and designated as “Strain K”. Following overnight growth in M21+40 g/L glucose seed media to mid-log phase, the E06 mutant was exposed to 270 mM ethyl methanesulfonate (EMS) in 0.1 M potassium phosphate buffer (pH 7.0) for 45 min at room temperature in dark and with periodic gentle agitation. Mutagenesis was terminated with the addition of a sodium thiosulfate solution to final concentration of 3% (w/v). In parallel, a mock-mutagenized control cell population was taken through all the same manipulations, except for exposure to EMS. Cells were collected using 0.2-micron filter sterilization units, washed extensively with water, and then washed with and into 5 mL M20+5 g/L glucose pre-seed media. Pre-seed cultures were incubated at 28° C./900 rpm/80% humidity for 72 h. An 8% (v/v) inoculum from each culture was then used to initiate a seed culture in 10 mL of standard M21+5 g/L glucose seed media in 50-mL bioreactor tubes. […] Growth was then assessed by measuring optical density at 750 nm wavelength (OD750) in a Molecular Devices Spectramax M5 plate reader. […]

Which “concentrations at which significant inhibition of growth occurred” value [1] does the source give for `OCCc1ccccc1` [phenethyl alcohol] here?
The value was greater than 2 µM.

And the “concentrations at which significant inhibition of growth occurred” value [2]?
Its value is greater than 3.6 mM.
